Columns and labels:
BrLTP2.1 [1] = molecular target: T1, BrLTP2.1 (Brassica rapa, UniProt A0A8D9LMK4); assay: TNS displacement fluorescence; format: binding; settings: 2.5 uM protein and 2.5 uM TNS, ligand 0-10 uM, pH 7.0; competitive with TNS
T1 construct: gene BRAPAZ1V2_A03P14030.2; predicted mature protein, residues 27-98 of 98 (signal peptide removed), amplified from genomic DNA; N-terminal T7-tag and C-terminal His6 kept; pET21a(+) in E. coli SHuffle T7 Express lysY

BrLTP2.1 [2] = molecular target: T1, BrLTP2.1; assay: TNS displacement fluorescence; protein lipid overlay; format: binding; settings: 2.5 uM protein and 2.5 uM TNS, ligand 0-10 uM, pH 7.0; competitive with TNS

T1 sequence (A0A8D9LMK4 entry or part of it): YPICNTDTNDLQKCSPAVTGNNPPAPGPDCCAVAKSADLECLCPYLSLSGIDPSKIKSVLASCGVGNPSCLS

| SMILES | TNS displacement fluorescence (BrLTP2.1 [1]) | TNS displacement fluorescence; protein lipid overlay (BrLTP2.1 [2]) |
| --- | --- | --- |
| CCCCCCCCCCCCCCCC(=O)O [palmitic acid] | Each of the three free fatty acids tested strongly reduced TNS-dependent fluorescence | – |
| CCCCCCCCCCCCCCCCCC(=O)O [stearic acid] | – | Each of the three free fatty acids tested strongly reduced TNS-dependent fluorescence |

From paper PMC6255697, “The major nectar protein of Brassica rapa is a non-specific lipid transfer protein, BrLTP2.1, with strong antifungal activity” (Journal of Experimental Botany, 2018)
